Measurements taken from ChEMBL document CHEMBL4819039, “Taxonomy Driven Discovery of Polyketides from Aspergillus californicus” (2021).
Converted amounts (≈) assume the structure as drawn. The source made the active and inactive calls. No cut-off for these calls is given here.

Experiments:
[1] = system: HepG2; assay: Cytotoxicity against human HepG2 cells after 72 hrs by MTT assay; assay type: functional, cell-based
[2] = system: MIA PaCa-2; assay: Cytotoxicity against human MIA PaCa-2 cells after 72 hrs by MTT assay; assay type: functional, cell-based
[3] = system: Klebsiella pneumoniae; assay: Antibacterial activity against Klebsiella pneumoniae ATCC 700603 assessed as inhibition of bacterial growth; assay type: functional
[4] = system: Escherichia coli; assay: Antibacterial activity against Escherichia coli ATCC 25922 assessed as inhibition of bacterial growth; assay type: functional
[5] = system: MCF7; assay: Cytotoxicity against human MCF7 cells after 72 hrs by MTT assay; assay type: functional, cell-based
[6] = system: Staphylococcus aureus; assay: Antibacterial activity against methicillin-sensitive Staphylococcus aureus ATCC 29213 assessed as inhibition of bacterial growth; assay type: functional
[7] = system: HL-60; assay: Cytotoxicity against human HL-60 cells after 72 hrs by CCK-8 assay; assay type: functional, cell-based
[8] = system: A549; assay: Cytotoxicity against human A549 cells after 72 hrs by MTT assay; assay type: functional, cell-based
[9] = system: Staphylococcus aureus; assay: Antibacterial activity against methicillin-resistance Staphylococcus aureus MB5393 assessed as inhibition of bacterial growth; assay type: functional
[10] = system: A2058; assay: Cytotoxicity against human A2058 cells after 72 hrs by MTT assay; assay type: functional, cell-based

| SMILES | Activity [1] | Activity [2] | MIC [3] | MIC [4] | Activity [5] | MIC [6] | Activity [7] | Activity [8] | MIC [9] | Activity [10] | Activity [3] | Activity [4] |
| --- | --- | --- | --- | --- | --- | --- | --- | --- | --- | --- | --- | --- |
| CCCCC[C@H](O)[C@@H](O)C[C@H]1OC(=O)c2c(O)ccc(CC=C(C)C)c21 | inactive | inactive | > 64 µg/mL | > 64 µg/mL | inactive | > 64 µg/mL | inactive | inactive | > 64 µg/mL | inactive |  |  |
| CCCCC[C@H](O)C(=O)C[C@H]1OC(=O)c2c(O)ccc(CC=C(C)C)c21 | inactive | inactive | > 64 µg/mL | > 64 µg/mL | inactive | > 64 µg/mL | inactive | inactive | > 64 µg/mL | inactive |  |  |
| CCCCC[C@H](O)[C@@H](O)C[C@@H]1OCc2c(O)ccc(CC=C(C)C)c21 | inactive | inactive | > 64 µg/mL | > 64 µg/mL | inactive | > 64 µg/mL | inactive | inactive | > 64 µg/mL | inactive |  |  |
| CCCCCC(=O)[C@]1(O)C=Cc2c(CC=C(C)C)ccc(O)c2[C@H]1O | inactive | inactive | > 64 µg/mL | > 64 µg/mL | inactive | > 64 µg/mL | inactive | inactive | > 64 µg/mL | inactive |  |  |
| CCCCCC(=O)[C@@]1(O)C=Cc2c(CC=C(C)C)ccc(O)c2[C@@H]1O | inactive | inactive | > 64 µg/mL | > 64 µg/mL | inactive | > 64 µg/mL | inactive | inactive | > 64 µg/mL | inactive |  |  |
| CCCCC[C@H](O)C(=O)C[C@@H]1OC(=O)c2c(O)ccc(CC=C(C)C)c21 | inactive | inactive | > 64 µg/mL | > 64 µg/mL | inactive | > 64 µg/mL | inactive | inactive | > 64 µg/mL | inactive |  |  |
| CCCCC/C=C/C=C/c1cccc(O)c1CO | inactive | inactive |  |  | inactive | 48 µg/mL (≈ 195 µM) | inactive | inactive | 48 µg/mL (≈ 195 µM) | inactive | inactive | inactive |
